From patent publication US20240317866A1, “Use of Anti-EGFR/Anti-Met Antibody to Treat Gastric or Esophageal Cancer” (Janssen Biotech, Inc., priority 2022, published 2024)

What was measured:
Assay type in all cases: in vivo, BALB/c nude mice
[1] = tested on: GA0152 gastric PDX; assay: Gastric PDX model GA0152, tumor growth inhibition; settings: amivantamab 10 mg/kg i.p. BIW, 5-FU 10 mg/kg i.p. QD 5 days/week, cisplatin 4 mg/kg i.p. QW, paclitaxel 15 mg/kg i.v. QW, vs isotype control
Protocol: (§1) Tumor fragments from stock tumor bearing mice were harvested and inoculated into BALB/c nude mice. Each mouse was inoculated subcutaneously in the right flank with indicated tumor fragments (2-3 mm in diameter) for tumor development.
(§2) After establishment of palpable lesions, the tumor growth was measured twice weekly. Once the mean tumor volume reached approximate 150 mm^3, animals were randomly allocated to relevant study groups with 8 mice per group. The randomization was performed according to the tumor size of each group, and the day of randomization was denoted as Day0. The treatments were started on the same day of randomization according to the dosing regimen in Table 18 where appropriate.
(§3) The study endpoints were to compare the tumor growth in each group at the end of treatments, and the subsequent tumor outgrowth after dosing stopped. The tumor size was measured twice weekly in two dimensions using a caliper, and the tumor volume was expressed in mm3 using the formula V=0.5×L×W^2, where V was tumor volume, L was tumor length (longest tumor dimension) and W was tumor width (longest tumor dimension perpendicular to L).
(§4) Tumor growth inhibition (TGI %) was an indication of anti-tumor activities, and calculated as TGI %=(1−(T−T0)/(C−C0))×100%, T and C were the mean tumor volume (TV) of treated and control groups, respectively on the day when mean TV of control group were terminated per study design.

[2] = tested on: GA0075 gastric PDX; assay: Gastric PDX model GA0075, tumor growth inhibition; settings: amivantamab 10 mg/kg i.p. BIW, 5-FU 10 mg/kg i.p. QD 5 days/week, cisplatin 4 mg/kg i.p. QW, paclitaxel 15 mg/kg i.v. QW, vs isotype control, Day28
Protocol: as §1, §2, §3, §4

[3] = tested on: GA3121 gastric PDX; assay: Gastric PDX model GA3121, tumor growth inhibition; settings: amivantamab 10 mg/kg i.p. BIW, paclitaxel 10 mg/kg i.v. QW, vs isotype control
Protocol: as §1, §2
as §3, with “L). […]” for “L).”

[4] = tested on: GA0046 gastric PDX; assay: Gastric PDX model GA0046, tumor growth inhibition

Structure (SMILES) | TGI% [1] | TGI% ([1]; listed as paxlitaxel) | TGI% [2] | TGI% [3] | effect on tumor growth (in words) ([4]; amivantamab 10 mg/kg BIW single agent, capmatinib 10 mg/kg BID) | TGI% ([4]; amivantamab 10 mg/kg i.p. BIW, capmatinib 10 mg/kg p.o. BID, vs isotype control, Day28)
CC(=O)O[C@H]1C(=O)[C@@]2(C)[C@H]([C@H](OC(=O)c3ccccc3)[C@]3(O)C[C@H](OC(=O)[C@H](O)[C@@H](NC(=O)c4ccccc4)c4ccccc4)C(C)=C1C3(C)C)[C@]1(OC(C)=O)CO[C@@H]1C[C@@H]2O [paclitaxel, reference compound] | 27.29% | 27.29% | 66.09% | −12.99% | – | –
CNC(=O)c1ccc(-c2cnc3ncc(Cc4ccc5ncccc5c4)n3n2)cc1F [capmatinib, reference compound] | – | – | – | – | no effect on tumor growth | 5.93%
